Reference: PubChem BioAssay AID1845206 (Molecular Pharmacology Branch, DTP, NCI, 2023)

System: NCI-H1618 multicellular tumor spheroid viability
Assay: Anticancer human tumor NCI-H1618 cell line growth inhibition;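 also: spheroids exposed to agents for 7 days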
Details: for IC50: curve of first compound; for viability, T/C: stronger effect = lower value
Source text: Multicellular complex tumor spheroid response to DNA repair inhibitors in combination with DNA-damaging drugs
This study explores the anticancer activities of DNA-damaging drugs and inhibitors of DNA damage repair, both as single agents and in combinations. Complex tumor spheroids comprised of malignant cells, endothelial cells and mesenchymal stem cells served as an in vitro model for human solid tumors. This model system incorporates physiologically relevant features and patient-derived or established malignant cell lines with clinically relevant genetic alterations from many tumor types. Twenty-six patient-derived or established malignant cell lines were evaluated representing sarcoma, melanoma, small cell lung cancer (SCLC), non-small cell lung cancer (NSCLC), as well as bladder, ovarian and pancreatic cancers. The concentration ranges selected for each drug and investigational agent were based upon clinically achievable concentrations if the clinical Cmax of the agent was known.
Compounds. The drugs and compounds olaparib (NSC753686), talazoparib (NSC767125), berzosertib (NSC777718), elimusertib (NSC800525), nedisertib (NSC802822), VX-984 (NSC792969), AZD-1390 (NSC803789), temozolomide (NSC362856), topotecan (NSC609699), trabectedin (NSC813783), staurosporine (NSC755774), and gemcitabine (NSC613327) were obtained from the National Cancer Institute (NCI) Developmental Therapeutics Program Chemical Repository. The FDA-approved anticancer drug set is available from the Developmental Therapeutics Program at https://dtp.cancer.gov/organization/dscb/obtaining/available_plates.htm. […] The stock solutions were prepared in dimethyl sulfoxide (DMSO, Sigma-Aldrich, St. Louis, MO, cat. D2650) at 400-fold the tested concentration and stored at -70 degrees C. Prior to their use, the stock solutions were diluted in fresh medium and the final DMSO concentration in the assay was 0.25% (v/v). All drugs and investigational agents were tested over a range starting from a high concentration at or near the clinical Cmax and decreasing in half-log increments. If the clinical Cmax for an agent had not been determined, the highest concentration tested was 10 microM.
Cell Lines. The patient-derived cancer cell (PDC) lines: 156681-154-R-J1-PDC, 283228-195-R-J1-PDC, 287954-098-R-J1-PDC, 292921-168-R-J2-PDC, 349418-098-R-PDC, 425362-245-T-J1-PDC, 556581-035-R-J1-PDC, and BL0293-F563-PDC were received from the NCI Patient-Derived Models Repository (PDMR, https://pdmr.cancer.gov). The established cell lines HS-SY-2 (RRID:CVCL_8719), MPNST, and SYO-1 (RRID:CVCL_7146) were obtained from the Sloan Kettering Institute. The alveolar soft parts sarcoma cell line ASPS-1 (RRID:CVCL_S738) was established at the NCI and grown from internal seed stocks. The following established cell lines were purchased from the American Type Culture Collection (ATCC, Manassas, VA): G-401 (ATCC, cat. CRL-1441, RRID:CVCL_0270), SW982 (ATCC, cat. HTB-93, RRID:CVCL_1734), VA-ES-BJ (ATCC, cat. CRL-2138, RRID:CVCL_1785), NCI-H719 (ATCC, cat. CRL-5837, RRID:CVCL_1582), NCI-H196 (ATCC, cat. CRL-5823, RRID:CVCL_1509), NCI-H841 (ATCC, cat. CRL-5845, RRID:CVCL_1595), NCI-H1618 (ATCC, cat. CRL-5879, RRID:CVCL_1480), NCI-H1876 (ATCC, cat. CRL-5902, RRID:CVCL_1503), DMS 114 (ATCC, cat. CRL-2066; RRID:CVCL_1174), NCI-H211 (ATCC, cat. CRL-5824; RRID:CVCL_1529), and SW 1271 (ATCC, cat. CRL-2177, RRID:CVCL_1716). The small cell lung cancer cell line COR-L88 was purchased from Sigma-Aldrich (cat. 92031917-1VL, RRID:CVCL_1141). The non-small cell lung cancer cell lines NCI-H226 (RRID:CVCL_1544) and NCI-H322M (RRID:CVCL_1557) were established at the NCI and grown from internal seed stocks. Pooled donor human umbilical vein endothelial cells (HUVEC, Lonza, cat. CC-2519) and human mesenchymal stem cells (hMSC, Lonza, cat. PT-2501) were purchased from Lonza (Walkersville, MD).
Cell Culture. All cells were maintained in an incubator at 37 degrees C and 5% CO2 with 95% humidity. […]

Cc1sc2c(c1C)C(c1ccc(Cl)cc1)=NC(CC(=O)Nc1ccc(O)cc1)c1nnc(C)n1-2 (stereo not given) + Cn1nnc2c(C(N)=O)ncn2c1=O
IC50 (second compound 1 µM): 783 nM | IC50 (second compound 3.16 µM): < 9.49 nM | IC50 (second compound 10 µM): < 9.49 nM | IC50 (second compound 31.6 µM): < 9.49 nM | IC50 (second compound 100 µM): 146 nM | viability, T/C (second compound 1 µM, first compound 0.00949 µM): 97.7% | viability, T/C (second compound 1 µM, first compound 0.03 µM): 20.7% | viability, T/C (second compound 1 µM, first compound 0.0949 µM): 90% | viability, T/C (second compound 1 µM, first compound 0.3 µM): 72% | viability, T/C (second compound 1 µM, first compound 0.949 µM): 45.9% | viability, T/C (second compound 1 µM, first compound 3 µM): 20.5% | viability, T/C (second compound 3.16 µM, first compound 0.00949 µM): 19.5% | viability, T/C (second compound 3.16 µM, first compound 0.03 µM): 35.3% | viability, T/C (second compound 3.16 µM, first compound 0.0949 µM): 49.1% | viability, T/C (second compound 3.16 µM, first compound 0.3 µM): 22.8% | viability, T/C (second compound 3.16 µM, first compound 0.949 µM): 5.18% | viability, T/C (second compound 3.16 µM, first compound 3 µM): 5.41% | viability, T/C (second compound 10 µM, first compound 0.00949 µM): 6.33% | viability, T/C (second compound 10 µM, first compound 0.03 µM): 21.3% | viability, T/C (second compound 10 µM, first compound 0.0949 µM): 5.98% | viability, T/C (second compound 10 µM, first compound 0.3 µM): 18.9% | viability, T/C (second compound 10 µM, first compound 0.949 µM): 2.4% | viability, T/C (second compound 10 µM, first compound 3 µM): 1.94% | viability, T/C (second compound 31.6 µM, first compound 0.00949 µM): 7.34% | viability, T/C (second compound 31.6 µM, first compound 0.03 µM): 9.11% | viability, T/C (second compound 31.6 µM, first compound 0.0949 µM): 17.6% | viability, T/C (second compound 31.6 µM, first compound 0.3 µM): 4.34% | viability, T/C (second compound 31.6 µM, first compound 0.949 µM): 1.89% | viability, T/C (second compound 31.6 µM, first compound 3 µM): 1.29% | viability, T/C (second compound 100 µM, first compound 0.00949 µM): 53.6% | viability, T/C (second compound 100 µM, first compound 0.03 µM): 78.7% | viability, T/C (second compound 100 µM, first compound 0.0949 µM): 70.3% | viability, T/C (second compound 100 µM, first compound 0.3 µM): 20.8% | viability, T/C (second compound 100 µM, first compound 0.949 µM): 6.16% | viability, T/C (second compound 100 µM, first compound 3 µM): 0.99%

[2H]c1nc(C)nc([2H])c1-c1cc(NC[C@@H](C)c2cccc3c(C(=O)NC)ccnc23)ncn1 + Cn1nnc2c(C(N)=O)ncn2c1=O
IC50 (second compound 1 µM): > 10000 nM | IC50 (second compound 3.16 µM): < 31.6 nM | IC50 (second compound 10 µM): < 31.6 nM | IC50 (second compound 31.6 µM): < 31.6 nM | IC50 (second compound 100 µM): < 31.6 nM | viability, T/C (second compound 1 µM, first compound 0.0316 µM): 91.3% | viability, T/C (second compound 1 µM, first compound 0.1 µM): 91.9% | viability, T/C (second compound 1 µM, first compound 0.316 µM): 85.3% | viability, T/C (second compound 1 µM, first compound 1 µM): 85.3% | viability, T/C (second compound 1 µM, first compound 3.16 µM): 89.2% | viability, T/C (second compound 1 µM, first compound 10 µM): 89.3% | viability, T/C (second compound 3.16 µM, first compound 0.0316 µM): 33.1% | viability, T/C (second compound 3.16 µM, first compound 0.1 µM): 29.5% | viability, T/C (second compound 3.16 µM, first compound 0.316 µM): 21.9% | viability, T/C (second compound 3.16 µM, first compound 1 µM): 28.1% | viability, T/C (second compound 3.16 µM, first compound 3.16 µM): 13.1% | viability, T/C (second compound 3.16 µM, first compound 10 µM): 27.3% | viability, T/C (second compound 10 µM, first compound 0.0316 µM): 4.05% | viability, T/C (second compound 10 µM, first compound 0.1 µM): 4.95% | viability, T/C (second compound 10 µM, first compound 0.316 µM): 5.87% | viability, T/C (second compound 10 µM, first compound 1 µM): 7.24% | viability, T/C (second compound 10 µM, first compound 3.16 µM): 4.35% | viability, T/C (second compound 10 µM, first compound 10 µM): 11.5% | viability, T/C (second compound 31.6 µM, first compound 0.0316 µM): 20.8% | viability, T/C (second compound 31.6 µM, first compound 0.1 µM): 19.9% | viability, T/C (second compound 31.6 µM, first compound 0.316 µM): 11.3% | viability, T/C (second compound 31.6 µM, first compound 1 µM): 15.1% | viability, T/C (second compound 31.6 µM, first compound 3.16 µM): 6.28% | viability, T/C (second compound 31.6 µM, first compound 10 µM): 5.54% | viability, T/C (second compound 100 µM, first compound 0.0316 µM): 61.9% | viability, T/C (second compound 100 µM, first compound 0.1 µM): 36.3% | viability, T/C (second compound 100 µM, first compound 0.316 µM): 22.1% | viability, T/C (second compound 100 µM, first compound 1 µM): 59% | viability, T/C (second compound 100 µM, first compound 3.16 µM): 46.6% | viability, T/C (second compound 100 µM, first compound 10 µM): 34.6%
